What was measured:
[1] = test system: Echinochloa crusgalli; experiment: Seedling stage sealing experiment for water-seeding; type: in vivo; settings: 120 g a.i./ha, 15 days, fresh weight control rate
[2] = test system: Echinochloa phyllopogon; experiment: as above; type: in vivo; settings: 120 g a.i./ha, 15 days, fresh weight control rate
Summary of the method: (§1)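 Read-out: 0–9 damage level from fresh-weight control rate (9 = completely dead, 1 = under 10%, 0 = no effect), averaged over triplicates, taken 15 days after spraying. Doses were 120, 60, 30 and 15 g a.i./ha, acetone/water solution, spray tower.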

[3] = test system: Apple ring rot; experiment: Fungicidal activity assay, petri dish method; type: cell-based; settings: 25° C., after 4 days; for Apple ring rot/% (mycelium growth inhibition rate): 400 ppm
Procedure: (§2) Petri dish method: The drug agent was dissolved with acetone, diluted with sterile water, and set to different levels of mass concentrations according to its activity. Under aseptic operation conditions, the pre-melted sterilized medium was quantitatively added into sterilized flasks according to the test treatment. The drug solutions were quantitatively aspirated in order from low to high concentrations, added into the above-mentioned flasks, and shaken well, respectively. Next, equal amounts of the solution were poured into 3 petri dishes with a diameter of 6 cm to prepare drug-containing plates with corresponding concentrations. In the test, a treatment without drugs was set up as the blank control and each treatment was repeated 3 times. A fungus cake was cut out from the edge of the colony of the cultured pathogens using a sterile hole puncher with a diameter of 3 mm under sterile conditions. The fungus cake was inoculated into the center of a drug-containing plate using an inoculator, with the mycelia facing up, covered with a plate cover, and cultured in an incubator at 25° C. The growth of pathogen mycelia was investigated according to the fungal growth in the blank control petri dishes after 4 days. The diameters of the colonies were measured with a caliper in millimeters (mm). Each colony was vertically measured for diameters once each by the cross method and then averaged. Based on the investigation results, the mycelium growth inhibition rate of each treatment concentration on the test target fungi was calculated in accordance with Equation (1) and (2). The unit was percentage (%).
(§3) [formula] • wherein: D—Increase of colony diameter; D1—Diameter of colony; D2—Diameter of fungus cake.
(§4) [formula] • wherein: I—Mycelium growth inhibition rate; D0—Increase of colony diameter of blank control; Dt—Increase of colony diameter of drug treatment.

[4] = test system: Rice sheath blight; experiment: Fungicidal activity assay, petri dish method; type: cell-based; settings: 25° C., after 4 days; for Rice sheath blight/% (mycelium growth inhibition rate): 400 ppm
Procedure: as §2, §3, §4

[5] = test system: weeds; experiment: Activity assay of compositions, soil sealing treatment (S); type: in vivo; settings: treatment S, A 15 g a.i./ha
From the text: (§5) The required active ingredient B was purchased from a reagent company or a technical material manufacturer or synthesized by a conventional method. The technical materials were all dissolved with acetone solvents and diluted with aqueous solution of 0.1% Tween® 80 emulsifier, which should be used immediately after dilution.
The test soil was quantitatively filled to ¾ of a pot, and then watered from the bottom of the pot to completely wet the soil to saturation. The seeds of the test weeds were accelerated to Just germinate, and then evenly and quantitatively broadcasted on the soil surface, covered with 0.5-1 cm soil according to the sizes of the seeds, and ready for use 72 hours after broadcasting.
Each treatment was repeated 4 times. Four pots were treated each time with 20 weed seeds per pot.
The seeds were planted in a 20 cm*30 cm square box. Water was added to 2-3 cm deep after sowing, then injected with the drug agent using a syringe, stirred evenly, and left to stand for 2 days to dry naturally. The soil was kept moist afterwards.
(§6) A method for investigating absolute numbers was employed. The whole seedlings of the survival weeds were cut along the soil surface with a blade, and the fresh weight of the weeds was weighed by an analytical balance. For dead weeds, the fresh weight thereof was considered zero.
(§7) The investigation was performed 21 days after the treatment for once in total.
(§8) The theoretical fresh weight inhibition rate of a mixed combination of each treatment was calculated by the Gowing method (E0═X+Y−X*Y/100), then compared with the measured inhibition rate (E) to evaluate the type of the combined action of the combination of the two on weeds. The combined action was a synergistic effect when E−E0 >10%; an antagonistic effect when E−E0<−10%; an additional effect when −10%≤E−E0≤10%. An optimal ratio was determined according to factors such as actual control effects, characteristics of herbicides, balance of the formulation, etc.

[6] = test system: weeds; experiment: Activity assay of compositions, post-emergence spray treatment of stems and leaves (F); type: in vivo; settings: treatment F, A 30 g a.i./ha, 21 days after treatment
Procedure: as §5
Weeds were cultivated by the pot culture method. […] Weed seeds with plump and uniform grains were selected, soaked in lukewarm water at 25° C. for 6 hours, and accelerated to germinate in a 28° C. biochemical incubator (in darkness). The weed seeds that had just germinated were evenly placed on the surface of the soil and then covered with 0.5-1 cm soil according to the sizes of seeds.
The weeds were cultured in a controllable sunlight greenhouse at 20-30° C., in natural light and with relative humidity of 57%-72%.
Each treatment was repeated 4 times. Three pots with 20 weed seeds sowed per pot were treated each time.
The drug was applied once in total in the experiment. When at 1.5-2 leaf stage, the weeds were thinned out to maintain 10 strains per pot. Thirty strains were kept in each treatment and then continued to be cultured until the 3-4 leaf stage for further treatment.
The well-cultured test materials were evenly placed on a 0.5 m^2 platform and foliage-sprayed by the 3WP-2000-type walking spray tower at a dosage of […] and a spray pressure of 0.3 MPa. After all the drug solution was sprayed, the air valve was closed. And 30 seconds later, the door of the spray tower was opened, and the nutritional bowl was taken out. Next, the air valve was opened, and the spray tube was cleaned by spraying 50 mL of water. The test materials were transferred to and routinely cultured in a greenhouse after the treatment.
as §6, §7
as §8, with “etc. In the formula, X represents the fresh weight inhibition rate of the active ingredient A in a dosage of P; Y represents the fresh weight inhibition rate of the active ingredient B in a dosage of Q. The statistical results are shown in Table 6.” for “etc.”

[7] = test system: Leptochloa chinensis; experiment: Seedling stage sealing experiment for water-seeding; type: in vivo; settings: 120 g a.i./ha, 15 days, fresh weight control rate
Summary of the method: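 Seeds sown in soil-filled bowls kept moist in water-filled boxes; compound in acetone diluted with water and spray-applied at 120, 60, 30 and 15 g a.i./ha, triplicate. After 15 days in greenhouse, fresh-weight growth control scored on a 0–9 scale (9 = dead, 0 = no effect), averaged.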

[8] = test system: Huaidao (rice cultivar); experiment: Seedling stage sealing experiment for water-seeding (crop safety); type: in vivo; settings: 120 g a.i./ha, 15 days, fresh weight control rate; for Huaidao (rice cultivar) plant damage level: seedling stage sealing
Summary of the method: as §1

[9] = test system: Tomato gray mold; experiment: Fungicidal activity assay, petri dish method; type: cell-based; settings: 25° C., after 4 days
Procedure: as §2, §3, §4

[10] = test system: Mythimna separata; experiment: Insecticidal activity assay, spraying method; type: in vivo; settings: 500 ppm, 3rd instar, spray, 48 h after drug application
Procedure: (§9) Spraying method: the technical material was weighed and dissolved with acetone, and the drug liquid was diluted with distilled water to different concentrations. The 2nd instar Spodoptera frugiperda test insects or the 3rd instar Mythimna separata test insects reared indoors with consistent physiological conditions were selected. Ten test insects were picked into each petri dish. Two 2 cm-long corn leaves were placed in the petri dish and sprayed using a spray tower. Each dosage was repeated 3 times, with acetone of the corresponding concentration as a control. After drug application, the insects were transferred to and reared in a condition where the temperature was 25° C. and the humidity was 60%. The results were investigated 48 h after drug application and the death number per treatment was collected, respectively. The mortality was calculated in accordance with the following equation: Mortality (%)=(Number of dead insects/Number of test insects)×100.

[11] = test system: Spodoptera frugiperda; experiment: Insecticidal activity assay, spraying method; type: in vivo; settings: 500 ppm, 2nd instar, spray, 48 h after drug application
Procedure: as §9

[12] = spray, seedling stage sealing for water-seeding

## Cc1cc(C)cc([C@H]2CN(C)C(=O)[C@@H]2C(=O)Nc2cnn(C)c2Cl)c1 [117′]
[1]; seedling stage sealing
  Echinochloa crusgalli activity level (growth control rate): 9
[2]; seedling stage sealing
  Echinochloa phyllopogon activity level (growth control rate): 7 (Level 7: growth control rate greater than or equal to 80% and less than 90%)
[3]; 96 h, read-out: Apple ring rot/% (mycelium growth inhibition rate)
  inhibition at 400 ppm: 55%
[4]; 96 h, read-out: Rice sheath blight/% (mycelium growth inhibition rate)
  inhibition at 400 ppm: 66%
[5]; Alisma plantago-aquatica, 21 days after treatment
  Control effect of A applied alone in a corresponding dose (%): 29.6%
[5]; Paspalum distichum, 21 days after treatment
  Control effect of A applied alone in a corresponding dose (%): 45.7%
[5]; Rotala indica, fresh weight inhibition 21 days after treatment
  Control effect of A applied alone in a corresponding dose (%): 37.6%
[6]; Alisma plantago-aquatica
  Control effect of A applied alone in a corresponding dose (%): 24.8%
[6]; Paspalum distichum
  Control effect of A applied alone in a corresponding dose (%): 42.6%
[7]
  Leptochloa chinensis activity level (growth control rate): 9

## CN1C[C@H](c2ccc(C3CC3)cc2)[C@@H](C(=O)Nc2cnn(C)c2Cl)C1=O [259′]
[1]; seedling stage sealing
  Echinochloa crusgalli activity level (growth control rate): 5 (Level 5: growth control rate greater than or equal to 50% and less than 70%)
[8]
  Huaidao (rice cultivar) plant damage level: 0
[3]
  Apple ring rot/% (mycelium growth inhibition rate): 51%
[4]
  Rice sheath blight/% (mycelium growth inhibition rate): 59%
[9]; 400 ppm
  Tomato gray mold/% (mycelium growth inhibition rate): 80%

## C=CCn1ncc(NC(=O)[C@H]2C(=O)N(C)C[C@@H]2c2cc(C)cc(C)c2)c1Cl [270′]
[2]; seedling stage sealing
  Echinochloa phyllopogon activity level (growth control rate): 6 (Level 6: growth control rate greater than or equal to 70% and less than 80%)
[8]
  Huaidao (rice cultivar) plant damage level: 0
[4]
  Rice sheath blight/% (mycelium growth inhibition rate): 61%
[9]; 400 ppm
  Tomato gray mold/% (mycelium growth inhibition rate): 51%
[10]
  Mythimna separata/% (mortality): 75%
[11]
  Spodoptera frugiperda/% (mortality): 55%

## CN1C[C@H](c2cc3ccccc3o2)[C@@H](C(=O)Nc2cnn(C)c2Cl)C1=O [356′]
[1]; seedling stage sealing
  Echinochloa crusgalli activity level (growth control rate): 5 (Level 5: growth control rate greater than or equal to 50% and less than 70%)
[3]
  Apple ring rot/% (mycelium growth inhibition rate): 83%
[9]; 400 ppm
  Tomato gray mold/% (mycelium growth inhibition rate): 57%

## CN1C[C@H](c2ccc3c(c2)OC(F)(F)O3)[C@@H](C(=O)Nc2cnn(C)c2Cl)C1=O [357′]
[3]
  Apple ring rot/% (mycelium growth inhibition rate): 65%
[4]
  Rice sheath blight/% (mycelium growth inhibition rate): 50%
[9]; 400 ppm
  Tomato gray mold/% (mycelium growth inhibition rate): 80%

## CCn1ncc(NC(=O)[C@H]2C(=O)N(C)C[C@@H]2c2cc(C)cc(C)c2)c1Cl [418′]
[1]; seedling stage sealing
  Echinochloa crusgalli activity level (growth control rate): 9
[2]; seedling stage sealing
  Echinochloa phyllopogon activity level (growth control rate): 9
[9]; 500 ppm
  Tomato gray mold/% (mycelium growth inhibition rate): 96%

## Cc1cc(C)cc([C@H]2CN(C)C(=O)[C@@H]2C(=O)Nc2cnn(C)c2Br)c1 [425′]
[1]; seedling stage sealing
  Echinochloa crusgalli activity level (growth control rate): 9
[2]; seedling stage sealing
  Echinochloa phyllopogon activity level (growth control rate): 9
[8]
  Huaidao (rice cultivar) plant damage level: 0
[3]
  Apple ring rot/% (mycelium growth inhibition rate): 55%
[4]
  Rice sheath blight/% (mycelium growth inhibition rate): 56%
[9]; 400 ppm
  Tomato gray mold/% (mycelium growth inhibition rate): 68%

## Cc1cc(Cl)cc([C@H]2CN(C)C(=O)[C@@H]2C(=O)Nc2cnn(C)c2Cl)c1 [504′]
[1]; [12]
  Echinochloa crusgalli activity level (growth control rate): 9
[2]; [12]
  Echinochloa phyllopogon activity level (growth control rate): 9
[8]; [12]
  Huaidao (rice cultivar) plant damage level (growth control rate): 0
[3]
  Apple ring rot/% (mycelium growth inhibition rate): 80%
[4]
  Rice sheath blight/% (mycelium growth inhibition rate): 83%

Source: US20260223850A1, “SUBSTITUTED PYRROLIDONE COMPOUND, PREPARATION METHOD THEREFOR, COMPOSITION AND APPLICATION THEREOF” (QINGDAO KINGAGROOT CHEMICAL COMPOUND CO., LTD., priority 2023, published 2026)
